We go through 22 compounds from patent US8017612B2, “Piperazine compound and use thereof as a HCV polymerase inhibitor” (priority 2006, dated 2011).

Test [1] deals with T1, HCV polymerase (NS5B) type 1b (Hepatitis C virus genotype 1b, UniProt P26663).
T1 construct: a region encoding NS5B (J Virol 1991 March, 65(3), 1105-13, 544 amino acids after deletion of 47 amino acids on the C-terminal); 6xHis (C); made in house; host or cells: Escherichia coli
The test is described as follows: Assay of enzyme (HCV polymerase) inhibitory activity, type 1b enzyme. It counts as biochemical, HCV BK strain (type 1b). In outline:
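Rxn: NS5B 1b (BK, ΔC47, His6) 0.5 μg/ml; substrate RNA 5 μg/ml; ATP/GTP/CTP 50 μM, UTP 2 μM + [5,6-3H]UTP; 20 mM Tris pH 7.5, 5 mM MgCl2, 50 mM NaCl, 1 mM EDTA/DTT. 25 °C, 60 min. Stop with TCA/pyrophosphate, filter, scintillation count; IC50 vs. untreated.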

Test [2] deals with T2, HCV polymerase (NS5B) type 1a (Hepatitis C virus genotype 1a, UniProt P26664).
T2 construct: made in house; host or cells: Escherichia coli (by the 'similar method' of the 1b enzyme)
Kind of test: Assay of enzyme (HCV polymerase) inhibitory activity, type 1a enzyme. It counts as biochemical, HCV type 1a (cloned from the blood of patients). An outline of the steps: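 NS5B Δ47 C-term His6 (type 1a, 1.5 μg/ml); substrate RNA 5 μg/ml; ATP/GTP/CTP 50 μM, UTP 2 μM + [5,6-3H]UTP; Tris pH 7.5, MgCl2 5 mM; 25° C, 60 min. TCA/pyrophosphate stop, GF/B filter, scintillation. IC50 vs no-compound control.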

The mark [3] stands for this setting: HCV polymerase inhibitory activity (IC50), 1b, type 1b enzyme 0.5 μg/ml, 25° C., 60 min.
[4] abbreviates: HCV polymerase inhibitory activity (IC50), 1a, type 1a enzyme 1.5 μg/ml, 25° C., 60 min.
Where [5] appears, read: HCV polymerase inhibitory activity IC50, 1b, type 1b enzyme.
Where [6] appears, read: HCV polymerase inhibitory activity IC50, 1a, type 1a enzyme.

Take `CCCc1ccc(CNC(=O)[C@H]2CN(c3cc(C)c(O)nn3)CCN2S(=O)(=O)c2ccc(OC(F)(F)F)cc2)cc1` [Example 454, (R)-4-(6-hydroxy-5-methyl-pyridazin-3-yl)-1-(4-trifluoromethoxy-benzenesulfonyl)-piperazine-2-carboxylic acid 4-propyl-benzylamide]: the IC50 in test [1] (setting [3]) and in test [2] (setting [4]) was < 100 nM in each case.
As for `CC(C)(C)c1ccc(CNC(=O)[C@H]2CN(C(=O)Cc3ccncc3)CCN2S(=O)(=O)c2ccc(OC(F)(F)F)cc2)cc1` [Example 500, (R)-4-(2-pyridin-4-yl-acetyl)-1-(4-trifluoromethoxy-benzenesulfonyl)-piperazine-2-carboxylic acid 4-tert-butyl-benzylamide], the IC50 in test [1] (setting [3]) and in test [2] (setting [4]) was < 100 nM each time.
For `CCCc1ccc(CNC(=O)[C@H]2CN(c3nc4ncncc4s3)CCN2S(=O)(=O)c2ccc(OC(F)(F)F)cc2)cc1` [Example 914, (R)-4-thiazolo[4,5-d]pyrimidin-2-yl-1-(4-trifluoromethoxy-benzenesulfonyl)-piperazine-2-carboxylic acid 4-propyl-benzylamide], the IC50 in test [1] (setting [5]) and in test [2] (setting [6]) was < 100 nM each time.
As to `CCC(F)(F)c1ccc(CNC(=O)[C@H]2CN(C(=O)n3nc(C)nc3N)CCN2S(=O)(=O)c2ccc(OC(F)(F)F)cc2)cc1` [Example 568, (R)-4-(5-amino-3-methyl-[1,2,4]triazole-1-carbonyl)-1-(4-trifluoromethoxy-benzenesulfonyl)-piperazine-2-carboxylic acid 4-(1,1-difluoro-propyl)-benzylamide], the IC50 in test [1] (setting [3]) and in test [2] (setting [4]) was > 1000 nM throughout.
Consider `CCc1ccc(CNC(=O)[C@H]2CN(C(C)=O)CCN2S(=O)(=O)c2ccc(C(C)C)cc2)cc1` [Example 232, (R)-4-acetyl-1-(4-isopropyl-benzenesulfonyl)-piperazine-2-carboxylic acid 4-ethyl-benzylamide], for which the IC50 in test [1] (setting [3]) and in test [2] (setting [4]) was 100 to 1000 nM in each case.
Take `O=C(NCc1ccc(OC(F)F)cc1)[C@H]1CN(c2nn3ccc(=O)nc3s2)CCN1S(=O)(=O)c1ccc(C(F)(F)F)cc1` [Example 1057, (R)-4-(7-oxo-7H-[1,3,4]thiadiazolo[3,2-a]pyrimidin-2-yl)-1-(4-trifluoromethyl-benzenesulfonyl)-piperazine-2-carboxylic acid 4-difluoromethoxy-benzylamide]: the IC50 in test [1] (setting [5]) and in test [2] (setting [6]) was < 100 nM each time.
Turning to `COCc1nc(N)c2sc(N3CCN(S(=O)(=O)c4ccc(OC(F)(F)F)cc4)[C@@H](C(=O)NCc4ccc(OC(F)(F)F)cc4)C3)nc2n1` [Example 1055, (R)-4-(7-amino-5-methoxymethyl-thiazolo[4,5-d]pyrimidin-2-yl)-1-(4-trifluoromethoxy-benzenesulfonyl)-piperazine-2-carboxylic acid 4-trifluoromethoxy-benzylamide], the half-inhibitory concentration (IC50) in test [1] (setting [5]) and in test [2] (setting [6]) was < 100 nM each time.
On to `CCCc1ccc(CNC(=O)[C@H]2CN(C(=O)Nc3ccccc3C(=O)OC)CCN2S(=O)(=O)c2ccc(OC(F)(F)F)cc2)cc1` [Example 831, 2-{[(R)-3-(4-propyl-benzylcarbamoyl)-4-(4-trifluoromethoxy-benzenesulfonyl)-piperazine-1-carbonyl]-amino}-benzoic acid methyl ester], for which the concentration for half-maximal inhibition (IC50) in test [1] (setting [5]) and in test [2] (setting [6]) was > 1000 nM each time.
As for `CCC(F)(F)c1ccc(CNC(=O)[C@H]2CN(C(=O)C(C)C)CCN2S(=O)(=O)c2ccc(OC(F)(F)F)cc2)cc1` [Example 609, (R)-4-isobutyryl-1-(4-trifluoromethoxy-benzenesulfonyl)-piperazine-2-carboxylic acid 4-(1,1-difluoro-propyl)-benzylamide], the half-maximal inhibitory concentration (IC50) in test [1] (setting [3]) was 100 to 1000 nM; in test [2] (setting [4]), > 1000 nM.
The like results for `CC(=O)N1CCN(S(=O)(=O)c2ccc(C(C)C)cc2)C(C(=O)NCc2ccc(Oc3ccccc3)cc2)C1` (centres unmarked) [Example 126, 4-acetyl-1-(4-isopropyl-benzenesulfonyl)-piperazine-2-carboxylic acid 4-phenoxy-benzylamide] were, in that order, > 1000 nM and > 1000 nM.
The like results for `CC(C)c1ccc(S(=O)(=O)N2CCN(c3nc4c(s3)CCCC4)CC2C(=O)NCc2ccc(C(F)(F)F)cc2)cc1` (centres unmarked) [Example 156, 1-(4-isopropyl-benzenesulfonyl)-4-(4,5,6,7-tetrahydro-benzothiazol-2-yl)-piperazine-2-carboxylic acid 4-trifluoromethyl-benzylamide] were, in that order, > 1000 nM and > 1000 nM.
Take `CCN(C)c1ccc(CNC(=O)[C@H]2CN(c3cnc4cncnc4n3)CCN2S(=O)(=O)c2ccc(OC(F)(F)F)cc2)cc1` [Example 619, (R)-4-pteridin-7-yl-1-(4-trifluoromethoxy-benzenesulfonyl)-piperazine-2-carboxylic acid 4-(ethyl-methyl-amino)-benzylamide]: the half-maximal inhibitory concentration (IC50) in test [1] (setting [3]) and in test [2] (setting [4]) was < 100 nM in each case.
Consider `O=C(NCc1ccc(OC(F)(F)F)cc1)[C@H]1CN(c2cnc3cnccc3n2)CCN1S(=O)(=O)c1ccc(OC(F)(F)F)cc1` [Example 745, (R)-4-pyrido[3,4-b]pyrazin-2-yl-1-(4-trifluoromethoxy-benzenesulfonyl)-piperazine-2-carboxylic acid 4-trifluoromethoxy-benzylamide], for which the 50% inhibitory concentration (IC50) in test [1] (setting [5]) and in test [2] (setting [6]) was < 100 nM throughout.
`CC(C)c1ccc(CNC(=O)[C@H]2CN(C(=O)CCNC(=O)OC(C)(C)C)CCN2S(=O)(=O)c2ccc(C(F)(F)F)cc2)cc1` [Example 186, {3-[(R)-3-(4-isopropyl-benzylcarbamoyl)-4-(4-trifluoromethyl-benzenesulfonyl)-piperazin-1-yl]-3-oxo-propyl}-carbamic acid tert-butyl ester]: the IC50 in test [1] (setting [3]) is 100 to 1000 nM; in test [2] (setting [4]) it was > 1000 nM.
Consider `CCC(F)(F)c1ccc(CNC(=O)[C@H]2CN(c3cnc4cncnc4n3)CCN2S(=O)(=O)c2ccc(I)cc2)cc1` [Example 708, (R)-1-(4-iodo-benzenesulfonyl)-4-pteridin-7-yl-piperazine-2-carboxylic acid 4-(1,1-difluoro-propyl)-benzylamide], for which the half-inhibitory concentration (IC50) in test [1] (setting [5]) and in test [2] (setting [6]) was < 100 nM each time.
On to `CC(=O)N1CCN(S(=O)(=O)c2ccc(CC(C)C)cc2)[C@@H](C(=O)NCc2ccc(C(C)C)cc2)C1` [Example 194, (R)-4-acetyl-1-(4-isobutyl-benzenesulfonyl)-piperazine-2-carboxylic acid 4-isopropyl-benzylamide], for which the 50% inhibitory concentration (IC50) in test [1] (setting [3]) and in test [2] (setting [4]) was < 100 nM in each case.
As to `CC(C)(C)c1ccc(CNC(=O)[C@H]2CN(c3nc4c(s3)C(=O)NCC4)CCN2S(=O)(=O)c2ccc(OC(F)(F)F)cc2)cc1` [Example 578, (R)-4-(4-oxo-4,5,6,7-tetrahydro-thiazolo[5,4-c]pyridin-2-yl)-1-(4-trifluoromethoxy-benzenesulfonyl)-piperazine-2-carboxylic acid 4-tert-butyl-benzylamide], the IC50 in test [1] (setting [3]) and in test [2] (setting [4]) was < 100 nM throughout.
For `CCCc1ccc(CNC(=O)[C@H]2CN(c3nc(C)c(C(=O)O)s3)CCN2S(=O)(=O)c2ccc(OC(F)(F)F)cc2)c(C)c1` [Example 341, 4-methyl-2-[(R)-3-(2-methyl-4-propyl-benzylcarbamoyl)-4-(4-trifluoromethoxy-benzenesulfonyl)-piperazin-1-yl]-thiazole-5-carboxylic acid], the IC50 in test [1] (setting [3]) and in test [2] (setting [4]) was < 100 nM each time.
For the compound `CCCc1ccc(CNC(=O)[C@H]2CN(c3ccc(N)cn3)CCN2S(=O)(=O)c2ccc(OC(F)(F)F)cc2)cc1` [Example 458, (R)-4-(5-amino-pyridin-2-yl)-1-(4-trifluoromethoxy-benzenesulfonyl)-piperazine-2-carboxylic acid 4-propyl-benzylamide], the half-maximal inhibitory concentration (IC50) in test [1] (setting [3]) and in test [2] (setting [4]) was < 100 nM throughout.
As for `CCCc1ccc(CNC(=O)[C@H]2CN(c3nc4c(C(=O)O)cncc4s3)CCN2S(=O)(=O)c2ccc(OC(F)(F)F)cc2)cc1` [Example 1084, 2-[(R)-3-(4-propyl-benzylcarbamoyl)-4-(4-trifluoromethoxy-benzenesulfonyl)-piperazin-1-yl]-thiazolo[5,4-c]pyridine-7-carboxylic acid], the IC50 in test [1] (setting [5]) and in test [2] (setting [6]) was < 100 nM each time.
Consider `CC(C)c1ccc(CNC(=O)[C@H]2CN(C(=O)Cc3ccncc3)CCN2S(=O)(=O)c2ccc(C(F)(F)F)cc2)cc1` [Example 2, (R)-4-(2-pyridin-4-yl-acetyl)-1-(4-trifluoromethyl-benzenesulfonyl)-piperazine-2-carboxylic acid 4-isopropyl-benzylamide], for which the IC50 in test [1] (setting [3]) and in test [2] (setting [4]) was 100 to 1000 nM in each case.
For the compound `CCC(F)(F)c1ccc(CNC(=O)[C@H]2CN(c3cnc4cncnc4n3)CCN2S(=O)(=O)c2ccc(C(C)(C)C)cc2)cc1` [Example 695, (R)-1-(4-tert-butyl-benzenesulfonyl)-4-pteridin-7-yl-piperazine-2-carboxylic acid 4-(1,1-difluoro-propyl)-benzylamide], the concentration for half-maximal inhibition (IC50) in test [1] (setting [5]) and in test [2] (setting [6]) was < 100 nM throughout.

As a reminder, the IC50 is the concentration that gives 50% inhibition. Read a high IC50 as weaker potency in that assay.
